In brackets after ≈: the same amount, converted by molar mass.

Consider 7 molecules from ChEMBL document CHEMBL1146392, “Isolation of Diterpenoids of the Cladiellane Class from Gorgonians of the Genus Muricella” (J Nat Prod, 1997).

One series relates to Artemia. The experiment in a line: Toxicity in brine shrimp. Type of series: organism-based. The conditions noted are these: in vivo.
For the next series, the system named is A549. The experiment in a line: Cytotoxicity against human A549 cells. Type of series: functional. The conditions noted are these: read-out: ED50 (the source's name).
In another series the test system is HCT-15. The experiment in a line: Cytotoxicity against human HCT15 cells. Particulars: read-out: ED50 (the source's name). It is filed as functional.
A further series concerns SK-OV-3. The series can be described thus: Cytotoxicity against human SKOV3 cells. It is filed as functional. The conditions noted are these: read-out: ED50 (the source's name).
The next series concerns SK-MEL-2. The series can be described thus: Cytotoxicity against human SK-MEL-2 cells. Type of series: functional. Particulars: read-out: ED50 (the source's name).

For the molecule `CC1=CC[C@H](C(C)C)[C@@H]2[C@H]1[C@@H]1C/C(C)=C/CC[C@@](C)(O)[C@H]2O1`, in the series on Artemia, the LD50 came to 39.2 ppm.
As to `CC(=O)O[C@]1(C)CC/C=C(\C)C[C@@H]2O[C@H]1[C@H]1[C@@H]2C(C)=CC[C@@H]1C(C)C`, the EC50 turned out to be 12.7 µg/mL (≈ 36.7 µM) with A549, 13.9 µg/mL (≈ 40.1 µM) in the series on HCT-15, 21.3 µg/mL (≈ 61.5 µM) in the series with SK-OV-3 and 11.6 µg/mL (≈ 33.5 µM) in the series with SK-MEL-2. Also, the LD50 with Artemia is 0.3 ppm.
Turning to `CC1=C[C@@H](O)[C@H](C(C)(C)O)[C@@H]2[C@H]1[C@@H]1C/C(C)=C/CC[C@@](C)(O)[C@H]2O1`, the LD50 in the series on Artemia is on record as 48 ppm.
Molecule `C=C1C[C@@H]2O[C@@H]([C@H]3[C@@H]2C(C)=C[C@@H](OC(C)=O)[C@@H]3C(C)(C)OC(C)=O)[C@](C)(OC(C)=O)CC[C@@H]1OC(C)=O` [ASTROGORGIN] came in with an LD50 with Artemia of 1.8 ppm.
As for `CC(=O)O[C@@H]1C=C(C)[C@H]2[C@@H]([C@H]1C(C)C)[C@@H]1O[C@H]2C/C(C)=C/CC[C@@]1(C)OC(C)=O` [CALICOPHIRIN B], the LD50 in the series on Artemia came out at 1 ppm.
Molecule `C=C1CC[C@H](C(C)C)[C@@H]2[C@H]1[C@@H]1C/C(C)=C/CC[C@@](C)(OC(C)=O)[C@H]2O1` [CLADIELLIN] gave an LD50 with Artemia of 1.3 ppm.
The same measure, in the same setting: the result for `CC(=O)O[C@@H]1C=C(C)[C@H]2[C@@H]([C@H]1C(C)(C)OC(C)=O)[C@@H]1O[C@H]2C/C(C)=C/CC[C@@]1(C)OC(C)=O` [OPHIRIN] reads 8.7 ppm.
